The values that follow come from patent US12685719B2, “Treatment of breast cancer with selective androgen receptor modulators and cyclin-dependent kinase 4/6 inhibitors” (UNIVERSITY OF TENNESSEE RESEARCH FOUNDATION, priority 2012, dated 2026).

Data set [1] is described as follows: Protocol G100402, Phase 1 multiple ascending dose study. Type of data set: in vivo, human. The note with it: 10 mg dose group. An excerpt: These include: 1. Protocol G100401, a Phase 1 single ascending dose study in 96 healthy, young, male volunteers; 2. Protocol G100402, a Phase 1 multiple ascending dose study in 50 healthy, young, male volunteers, and 23 elderly male volunteers with truncal obesity; 3. Protocol G100503, a Phase 1 single dose pharmacokinetic study to assess the effect of a dosage regimen that simulates a sustained release formulation to an immediate release formulation in 18 healthy, young male volunteers and 18 postmenopausal women; 4. Protocol G100506, a Phase 1 single dose pharmacokinetic study to assess the relative bioavailability of a 3 mg hard shell capsule formulation to be used during continued clinical development and to assess the effect of food on the pharmacokinetics of the 3 mg softgel formulation in 27 healthy, young, male volunteers; 5. Protocol 006, a Phase 1 single dose and multiple dose pharmacokinetic study in 24 postmenopausal, Japanese women; 6. Protocol G200501, a Phase 2 study in 60 postmenopausal women and 60 elderly men to assess lean body mass and physical function; 7. Protocol 003, a Phase 1b study in 44 postmenopausal women; 8. Protocol G200502, a Phase 2b study in 159 men and postmenopausal women with cancer to assess lean body mass and physical function; 9.
Both 10 mg and 30 mg daily doses were evaluated in Protocol G100402 for up to 14 days. […]

In data set [2] the test system is HCC-38 triple negative breast cancer cells. Kind of data set: SRB cell viability of HCC-38 cells infected with AR or LacZ adenovirus. The data set is classed as cell-based. The settings on record: treated 3 days. Here is the method:
The SRB assay was used to determine cell number during cytotoxocity experiments. The following protocol was used: • 1. Cells were detached with 0.25% trypsin. • 2. Experimental cultures were cultured in 96-well microtiter plates (200 uL growth medium per well; 1,000-200,000 cells per well). • 3. Cultures were fixed with 50 uL 50% TCA (4° C.). (see cell fixation protocol for details). • 4. Fixed cells were stained with 50 uL 0.4% (wt/vol) SRB in 1% acetic acid for 10 minutes. • 5. SRB was removed and the cultures were quickly* rinsed 5 times with 1% acetic acid to remove unbound dye.** • 6. Cultures were air-dried overnight until there was no visible moisture. • 7. The cellular protein-bound SRB was dissolved with 200 uL unbuffered Tris base (10 mM, pH 10.5) for 30 minutes on a rocking platform shaker. • 8. Absorbance was read at 540 nm. • * quickly performing rinsing process was to prevent desorption of protein-bound SRB • ** completely removed residual wash solution by sharply flicking plates over sink. Fixation of Cells Attached to the Plastic Substratum
The following protocol was used for fixing cells: • a. 50 uL of 50% TCA (4° C.) was gently layered on the top of growth medium in each well to make a final TCA concentration of 10%. • b. Cultures were incubated at 4° C. for 1 hour. • c. […]

A further data set deals with T1, PR (Rattus norvegicus, UniProt Q63449).
T1 construct: expressed in transfected cells
T1 sequence (Q63449 1-923): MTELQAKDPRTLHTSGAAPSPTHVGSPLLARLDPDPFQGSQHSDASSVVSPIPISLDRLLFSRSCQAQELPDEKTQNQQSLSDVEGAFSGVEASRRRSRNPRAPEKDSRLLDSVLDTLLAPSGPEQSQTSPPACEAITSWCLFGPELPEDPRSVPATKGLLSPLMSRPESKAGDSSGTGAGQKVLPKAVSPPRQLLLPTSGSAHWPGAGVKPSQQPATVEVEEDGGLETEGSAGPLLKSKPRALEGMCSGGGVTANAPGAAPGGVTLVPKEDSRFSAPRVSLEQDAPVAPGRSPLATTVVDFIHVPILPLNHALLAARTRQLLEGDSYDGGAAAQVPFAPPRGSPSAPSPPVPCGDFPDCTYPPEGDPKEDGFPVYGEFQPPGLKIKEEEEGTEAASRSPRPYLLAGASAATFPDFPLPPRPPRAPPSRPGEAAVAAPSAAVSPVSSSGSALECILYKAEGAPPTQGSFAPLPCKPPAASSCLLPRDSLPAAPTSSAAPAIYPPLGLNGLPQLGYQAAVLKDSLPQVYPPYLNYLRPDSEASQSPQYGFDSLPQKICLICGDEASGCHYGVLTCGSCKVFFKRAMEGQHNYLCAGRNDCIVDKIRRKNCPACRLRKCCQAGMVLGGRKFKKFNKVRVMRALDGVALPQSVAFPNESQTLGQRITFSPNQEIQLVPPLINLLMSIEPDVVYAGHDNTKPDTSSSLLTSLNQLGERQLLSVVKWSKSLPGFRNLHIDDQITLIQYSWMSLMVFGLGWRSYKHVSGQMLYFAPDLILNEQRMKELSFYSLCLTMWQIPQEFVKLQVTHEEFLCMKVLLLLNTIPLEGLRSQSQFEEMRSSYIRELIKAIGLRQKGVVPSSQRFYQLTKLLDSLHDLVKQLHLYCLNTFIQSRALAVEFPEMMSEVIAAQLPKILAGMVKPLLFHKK
As to the kind of experiment: Transcriptional activation (luciferase) in HEK-293 cells, PR. The data set is classed as cell-based. Here is the method:
Rat GR, MR, PR, ER-α and ER-β were individually cloned into a pCR3.1 vector backbone. Sequencing was performed to verify the absence of any mutations. HEK-293 cells were plated at 90,000 cells per well of a 24 well plate in Dulbecco's Minimal Essential Media supplemented with 5% charcoal-stripped FBS. […] Luciferase assays were performed 48 h after transfection. Transcriptional activation values are represented as firefly luciferase normalized to Renilla luciferase.

“Also recorded” adds a separate entry of the source.

Consider `C[C@](O)(COc1ccc(C#N)cc1)C(=O)Nc1ccc(C#N)c(C(F)(F)F)c1` [Formula IX, (S)-N-(4-Cyano-3-(trifluoromethyl)phenyl)-3-(4-cyanophenoxy)-2-hydroxy-2-methylpropanamide], for which the “subjects discontinued due to ALT elevations” value in data set [1] was “None”. Further, the “cell growth (SRB cell viability)” value in data set [2] is recorded as “inhibited”.
Take `C[C@](O)(COc1ccc(C#N)cc1)C(=O)Nc1ccc(C#N)c(Cl)c1` [Formula VIII, (S)-N-(3-chloro-4-cyanophenyl)-3-(4-cyanophenoxy)-2-hydroxy-2-methylpropanamide]: the PR agonist activity result on PR (agonist mode) was “moderate potency partial agonist activity”. At PR (antagonist mode), the PR antagonism result was “potent partial inhibition of PR activity; also recorded: potent PR partial antagonism”, the “PR antagonist potency in comparison to Formula IX” value was 10 times more potent, the “PR antagonist potency in comparison to R-enantiomer of Formula IX” value worked out at 100 times more potent and the “PR antagonist potency in comparison to RU486” value was “about 1,000 fold weaker”. Moreover, the “potency relative to the endogenous agonist for PR” value on PR (vs progesterone) is given as “greater than 10,000 fold weaker”.
